Experimental data taken from patent US8354430B2, “Monohydrochloride salt of 1-[3-[3-(4-chlorophenyl) propoxy]propyl]-piperidine” (priority 2005, dated 2013).

Legend:
[1] = Stability to oxidation conditions (melting points under nitrogen and oxygen atmosphere); format: physicochemical
Procedure: Melting points of the above salts were also determined under nitrogen and oxygen atmosphere, in order to verify their stability to oxidation conditions.

[2] = physchem
[3] = Aqueous solubility at 23° C.; format: physicochemical; details: water
Description: The use of 1-[3-[3-(4-chlorophenyl)propoxy]propyl]-piperidine as the free base is limited because of its oily nature.

[4] = Solubility of salts in water at room temperature, pH 4.5 and pH 7.4
[5] = system: mice; experiment: Natural forgetting, two-trial object recognition; format: in vivo, mouse; details: tacrine 0.25 mg/kg, i.p. after T1
Procedure: Methods: Mice were submitted to the first trial (T1), placed in the box containing two identical objects and the time required by each animal to complete 8 sec of object exploration was determined. Exploration was considered to be directing the nose at a distance closer than 2 cm to the object and/or touching the object. Immediately after the first trial mice were treated with the vehicle or tacrine (0.25 mg/kg, i.p.). […] Mice were placed in the box for 5 min and exploration of each object together with motor activity was determined. The following parameters were measured: […]

Row | Compound | Melting point, N2 atmosphere (stability to oxidation conditions) [1] [°C] | Melting point, O2 atmosphere (stability to oxidation conditions) [1] [°C] | solubility ([2]; pH 4.5, aqueous buffer) [mg/mL] | solubility ([2]; pH 7.4, aqueous buffer) [mg/mL] | solubility ([2]; water) [mg/mL] | solubility [3] [mg/mL] | Solubility (% w/v) pH 4.5 ([4]; pH 4.5) [% w/v] | Solubility (% w/v) pH 7.4 ([4]; pH 7.4) [% w/v] | Solubility (% w/v) Water room T ([4]; water at room temperature) [% w/v] | natural forgetting [5]
1 | Clc1ccc(CCCOCCCN2CCCCC2)cc1.O=C(O)C(=O)O [Hydrogen oxalate, 1-[3-[3-(4-chlorophenyl)propoxy]propyl]-piperidine oxalate, reference compound] | 149.16 | 149.28 | 10 to 30 | 30 to 100 | 10 to 30 | 25 | – | – | – | –
2 | Clc1ccc(CCCOCCCN2CCCCC2)cc1 [Hydrogen succinate] | 63.21 | 63.46 | – | – | – | – | >100 | >100 | >100 | –
3 | Nc1c2c(nc3ccccc13)CCCC2 [tacrine, reference compound] | – | – | – | – | – | – | – | – | – | significantly reduced
4 | Hydrogen maleate | 90.85 | 90.74 | – | – | – | – | – | – | – | –
